Assay results reported in article PMC7466059, “Synthesis and Ex Vivo Trans-Corneal Permeation of Penetratin Analogues as Ophthalmic Carriers: Preliminary Results” (Pharmaceutics, 2020).

How the values were obtained:
[1] = Ex vivo trans-corneal permeation, Franz-type diffusion cells; type: in vitro ADME, pig; conditions: ex vivo porcine cornea, epithelial side to donor, area 0.2 cm^2; donor 100 µM, 200 µL; donor and receiving solutions PBS pH 7.4; 37 °C, 6 h, hourly sampling; fluorescence 485/535 nm; mean ± sd, n = 3-4
Description: Permeation experiments across freshly porcine cornea were performed following a method previously reported. In detail, transparent porcine corneas were isolated from fresh pig eyes (breed: Large White and Landrace; weight: 145–190 kg; age: 10–11 months; sex: female and male; Macello Annoni SpA, Busseto, Italy) and supported by glass Franz-type diffusion cells, having a permeation area of 0.2 cm^2. The epithelial side was in contact with the donor, i.e., 200 µL of aqueous solution containing a peptide: each concentration and solvent are indicated in Table 2. Donor concentrations were selected based on different solubility and analytical sensitivity (see paragraph 2.4 and Table S2). For some peptides, the solubilization was improved by dissolving the raw material using small amount of DMSO (final concentration less than 5% v/v), and then PBS or PBS+0.1% BSA were alternately added.
To fill the receptor compartment, around 4 mL of degassed PBS or PBS+0.1% BSA was used (see Table 2), being kept at 37 °C and maintained under magnetic stirring to avoid any boundary layer effect. The presence of 0.1% BSA aids in preventing peptides aggregation. Permeation experiments lasted 6 h, and for quantification purposes, 200 µL of the receiving solution were collected every hour and reintegrated with fresh medium. Each condition was replicated between 3 and 4 times, using cornea isolated from different animals.
Permeation samples were analysed without preliminary separation by fluorescence, using a Spark 10M microplate reader (Tecan Trading AG, Switzerland); excitation and emission wavelengths were 485 nm and 535 nm, respectively. Standard solutions were prepared in PBS pH 7.4 or in PBS containing BSA 0.1%. RSD% (relative standard deviation %) was lower than 10%, while ER% (relative error %) resulted lower than 15%.
The amount of CPP permeated across the cornea (nmol/cm^2) is plotted against time (hour): the slope of the regression line at steady state represents the trans-corneal flux J (nmol/cm^2 h). The apparent permeability coefficient Papp (cm/s) is then calculated as Equation (1): Papp = J/c(1) being c (µM) the concentration of the donor solution. Papp allows for a direct comparison among permeants studied using different donor concentrations.

[2] = design: method as in PMID 24521351, PMID 28927928; conditions: literature report; cited from earlier work

In the case of `CC[C@H](C)[C@H](NC(=O)[C@H](CCCCN)NC(=O)[C@@H](NC(=O)[C@H](CCC(N)=O)NC(=O)[C@H](CCCNC(=N)N)NC(=O)c1ccc2c(c1)C(=O)OC21c2ccc(O)cc2Oc2cc(O)ccc21)[C@@H](C)CC)C(=O)N[C@@H](Cc1c[nH]c2ccccc12)C(=O)N[C@@H](Cc1ccccc1)C(=O)N[C@@H](CCC(N)=O)C(=O)N[C@@H](CC(N)=O)C(=O)N[C@@H](CCCNC(=N)N)C(=O)N[C@@H](CCCNC(=N)N)C(=O)N[C@@H](CCSC)C(=O)N[C@@H](CCCCN)C(=O)N[C@@H](Cc1c[nH]c2ccccc12)C(=O)N[C@@H](CCCCN)C(=O)N[C@@H](CCCCN)C(N)=O` [reference compound], the “Papp (apparent permeability coefficient)” value [1] is given as 4.54 ± 2.01 10^−6 cm/s and the ocular toxicity [2] is given as “lacking in ocular toxicity”.
